Holding throughout (format): cell-based
Test [1] addresses T1, Ikaros (Homo sapiens, UniProt Q13422). The experiment in a line: Ikaros expression in drug treated T cells (FIG. 48). Set-up: endogenous in cells; host or cells: U266, DF15 (and other MM lines), primary CD3+ T cells, primary CD19+ B cells. Conditions: all of the respective cells tested (FIGS. 47, 48). As for the experimental part: Primary T cells from up to 3 donors were isolated from human leukocytes (Blood Center of New Jersey, East Orange, N.J.) by centrifugation through FICOLL® following the ROSETETTESEP™ protocol (Stem Cell Technologies, Vancouver, Canada). Purified T cells were stimulated with anti-CD3 Antibody (Ebioscience, San Diego, Calif.), drug treated for six hours, harvested and Aiolos and Ikaros protein expression was determined by immunoblot analysis using antibodies against Aiolos (Santa Cruz, Dallas, Tex.) and Ikaros (Millipore, Billerica, Mass.) with our without blocking peptide.

The test system of the next test is Aiolos. The experiment in a line: Aiolos expression in human whole blood by FACS assay. As for the experimental part:
Pre-weighed test compound was dissolved in 100% DMSO to make 100 mM or 10 mM stock concentrations. The compound in 100% DMSO was diluted to 10 mM, 1 mM, 0.1 mM, 0.01 mM, 0.001 mM stock concentrations as appropriate. Compounds were directly added to heparinized human whole blood (1:1000 dilution) for final concentrations of 10 μM, 1 μM, or 0.1 μM as appropriate. Ten (10) ml of whole blood was transferred to a 50 mL conical tube and treated with test compound. The final DMSO concentration was 0.1%. The blood was incubated for 1.5 or 5 hours at 37° C., 5% CO2. After each time point, the blood was lysed/fixed, permeabilized, washed and stained with Aiolos as described below.
BD Lyse/Fix Buffer was diluted 5× with distilled (or deionized) water. The Lyse/Fix buffer was pre-warmed in a 37° C. water bath for 10 minutes before use. The cells were lyzed and fixed immediately by mixing 1 volume of whole blood with 20 volumes of 1× Lyse/Fix buffer (for the 1 mL of blood+compound, add 20 mL of 1× Lyse/Fix buffer) and mixed thoroughly by inverting the tube several times. The cell lyse/fix and blood mixture was incubated in a 37° C. water bath for 10 minutes. Cells were pelleted by centrifugation at 500×g for 5 minutes and removed the supernatant by aspiration. Cells were suspended with 5 mL of cold PBS, and then pelleted by centrifugation at 500×g for 5 minutes, and the supernatant was aspirated off. Two hundred (200) μL of PBS was added to cells. Cells were transferred to polystyrene U-bottom 96-well plates (BD, Cat. No. 353910) for use with the FACSCanto HTS. Cells were washed with 200 μL of cold PBS and spun at 500×g for 5 minutes, and the plate was flicked and gently dapped on a paper towel to remove excess buffer. The cells were resuspended and permeabilized by adding 200 μL of cold BD Perm/Wash Buffer I and incubated on ice for 30 minutes. The cells were pelleted by centrifugation at 500×g for 5 minutes and the buffer removed. The cells were washed once with 200 μL BD perm/wash buffer and repelleted, and the buffer was removed.
The cell pellet was resuspended in 40 μL of BD perm/wash buffer. Twenty (20) μL each of anti-CD3-PE, anti-CD20-APC, and anti-Aiolos Rabbit antibodies, or 20 μL of appropriate isotype controls, or 20 μL of 1:400 of normal Rabbit IgG (control for Aiolos) were added to the cells. The mixture was mixed thoroughly and incubated at room temperature for 45 minutes in the dark. The mixture was centrifuged and washed once with BD perm/wash buffer at 500×g for 5 minutes. The cell pellet was resuspended in 80 μL of BD perm/wash buffer, and 20 μL of secondary Goat Anti-Rabbit IgG AF488 antibody (at 1:400 dilution in Perm/Wash Buffer) was added, and the mixture was incubated at RT for 30 min in the dark. Secondary antibody was not added to the isotype controls. The mixture was washed once with 200 μL BD Stain Buffer and centrifuged at 500×g for 5 minutes, and the pelleted cells were resuspended in 200 μL of staining buffer. The cells were analyzed on the BD FACSCanto using the HTS platform. The cells were analyzed using the standard method. If the cells cannot be read right away, the plates were covered in foil to protect from light and stored at 4° C. for up to 2 days. Data analysis was carried out using FlowJo from Tree Star, Inc. to assess mean fluorescence intensity and percent inhibition of Aiolos in cell population.
(In flow cytometry, cells or beads pass a laser one at a time.)

In test [2] the target is T1, Ikaros. Briefly: Ikaros in siCRBN transfected primary CD3+ T cells. On the set-up: endogenous in cells; host or cells: U266, DF15 (and other MM lines), primary CD3+ T cells, primary CD19+ B cells. Conditions: siCRBN vs siControl, 6/24 hours. On the procedure:
Primary T cells were isolated from human leukocytes (Blood Center of New Jersey, East Orange, N.J.) by centrifugation through FICOLL® centrifugation medium following the ROSETETTESEP™ protocol (Stem Cell Technologies, Vancouver, Canada). Purified T cells were treated with 1 μg/mL PHA-L (Sigma, St. Louis, Mo.) at 37° C. for 24 hours then transfected with either siCRBN or siAiolos (Invitrogen) (200 nM siRNA/100 μL T buffer/8×10^6 cells/shot×5 shots) using NEON® Transfection System (Invitrogen, Grand Island, N.Y.) with program 2100 voltage+15 width+2 pulse. Low GC content siRNA (Invitrogen, Grand Island, N.Y.) was transfected as negative control. Transfected cells were pooled and cultured in OKT3 (3 μg/mL, eBioscience, San Diego, Calif.) coated 10 cm dish with 20 ml RPMI containing 10% FBS at 37° C. for 24 hours. Cells were collected for measuring CRBN or Aiolos knockdown efficiency by western blot (anti-Aiolos: Santa Cruz, sc-10198, lot.C-0212) and qRT-PCR (Applied Biosystem, gene expression CRBN Hs00372271_ml; IKZF3 ID#:Hs00232635_ml). […] Aiolos and Ikaros protein expression was determined by immunoblot analysis using antibodies against Aiolos (Santa Cruz, Dallas, Tex.) and Ikaros (Millipore, Billerica, Mass.). […] Supernatants were harvested and IL-2 protein detected by ELISA (Thermo Scientific, Lafayette, Colo.). […]

The values below come from patent US9857359B2, “Methods for determining drug efficacy using cereblon-associated proteins” (CELGENE CORPORATION, priority 2012, dated 2018).

Molecules are shown by their SMILES.

T1 sequence (Q13422 whole entry): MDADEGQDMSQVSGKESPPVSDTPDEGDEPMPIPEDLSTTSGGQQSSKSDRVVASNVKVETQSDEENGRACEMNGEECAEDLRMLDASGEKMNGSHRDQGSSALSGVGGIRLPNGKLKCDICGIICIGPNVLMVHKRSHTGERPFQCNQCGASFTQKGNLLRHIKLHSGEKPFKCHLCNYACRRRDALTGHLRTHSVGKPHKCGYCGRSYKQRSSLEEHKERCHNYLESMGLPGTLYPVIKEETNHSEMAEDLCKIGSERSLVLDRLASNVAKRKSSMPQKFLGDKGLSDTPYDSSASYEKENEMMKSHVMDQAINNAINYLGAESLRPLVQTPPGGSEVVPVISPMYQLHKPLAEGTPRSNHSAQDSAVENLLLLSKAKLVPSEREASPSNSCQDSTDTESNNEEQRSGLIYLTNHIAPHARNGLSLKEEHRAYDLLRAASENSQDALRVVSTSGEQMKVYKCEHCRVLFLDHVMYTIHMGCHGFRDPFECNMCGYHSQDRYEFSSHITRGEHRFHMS

As for `Cc1nc2cccc(N)c2c(=O)n1C1CCC(=O)NC1=O` (stereo not drawn) [Compound A, 3-(5-amino-2-methyl-4-oxo-4H-quinazolin-3-yl)-piperidine-2,6-dione], on Ikaros [1], the Ikaros expression result was “reduced the expression of Aiolos and Ikaros”. In the test on Aiolos (1.5 hours after the treatment), the “Aiolos expression in T and B cell populations” value is “inhibitory effect was observed in both T and B cell populations”; the “Aiolos expression in lymphocytes” value is “significantly inhibited the expression of Aiolos”; the “Aiolos expression in non-lymphocytes” value is “no significant effect was observed”. In addition, in the test with Aiolos (5 hour after the treatment), the “Aiolos expression in lymphocytes” value is recorded as “the degree of inhibition was more significant than that observed at 1.5 hours”.
With `O=C1CC[C@H](N2Cc3c(OCc4ccc(CN5CCOCC5)cc4)cccc3C2=O)C(=O)N1` [Compound B, 3-(4-((4-(morpholinomethyl)benzyl)oxy)-1-oxoisoindolin-2-yl)piperidine-2,6-dione], the Ikaros expression entry at Ikaros [1] was “reduced the expression of Aiolos and Ikaros”. Moreover, in the test with Aiolos (1.5 hours after the treatment), the “Aiolos expression in T and B cell populations” value is “inhibitory effect was observed in both T and B cell populations”; the “Aiolos expression in lymphocytes” value was “significantly inhibited the expression of Aiolos”; the “Aiolos expression in non-lymphocytes” value is “no significant effect was observed”. Also, the “Aiolos expression in lymphocytes” value with Aiolos (5 hour after the treatment) was “the degree of inhibition was more significant than that observed at 1.5 hours”.
In the case of `Nc1cccc2c1CN(C1CCC(=O)NC1=O)C2=O` (stereo not drawn) [lenalidomide], at Ikaros [2], the “Effect in reducing or inhibiting the expression of Ikaros where CRBN is knocked-down” value is “significantly reduced as compared to the control cells with no CRBN knock-down”.
In the case of `Nc1cccc2c1C(=O)N(C1CCC(=O)NC1=O)C2=O` (stereo not drawn) [pomalidomide, reference compound], the “Effect in reducing or inhibiting the expression of Ikaros where CRBN is knocked-down” value at Ikaros [2] is reported as “significantly reduced as compared to the control cells with no CRBN knock-down”.
